# Reference: article PMC11413503, “SCR‐7952, a highly selective MAT2A inhibitor, demonstrates synergistic antitumor activities in combination with the S‐adenosylmethionine‐competitive or the methylthioadenosine‐cooperative protein arginine methyltransferase 5 inhibitors in methylthioadenosine phosphorylase‐deleted tumors” (MedComm, 2024)
# Tests used:
# Assay in all cases: Proliferation assay (CellTiter-Glo)
# Type in all cases: cell-based
# A549 = details: Homo sapiens, A549, 144 h; MTAP-deleted, 6-day; read-out: IC50, anti-proliferation A549
# Experimental: (§1) HCT116 colon carcinoma parental (WT) cells with MTAP ^−/− isogenic clone were established by KYinno Biotechnology Co., Ltd. (Beijing, China). A549, MIA PaCa‐2, and WI‐38 cell lines were obtained from ATCC. NCI‐H838 was obtained from Cobioer Biosciences. HCT116 WT and KO MTAP cells were cultured in McCoy's 5A media containing 10% FBS. A549 cells were cultured in DMEM media containing 10% FBS. MIA PaCa‐2 cells were cultured in DMEM media containing 10% FBS and 2.5% horse serum. NCI‐H838 cells were cultured in PRMI 1640 media containing 10% FBS. WI‐38 cells were cultured in EMEM media containing 10% FBS.
# (§2) Cells were plated in 96‐well cell culture plates and allowed to attach overnight at 37°C in 5% CO2. Compounds diluted in DMSO were added to cells in a dose–response format for 6 days. The final concentration of DMSO was 0.1% in media. Cell proliferation was measured using CellTiter‐Glo Cell Viability Assay (Promega). The IC50 values were calculated using the GraphPad Prism 9. Drug combination effects were analyzed using Combenefit software.[45]
# HCT116 MTAP−/− cells = test system: HCT116 MTAP−/− cells
# Experimental: as §1, §2
# HCT116 WT cells = details: Homo sapiens, HCT-116, 144 h; 6-day treatment; read-out: IC50, anti-proliferation HCT116 WT
# Experimental: as §1, §2
# MIA PaCa-2 = details: Homo sapiens, MIA PaCa-2, 144 h; MTAP-deleted, 6-day; read-out: IC50, anti-proliferation MIA PaCa-2
# Experimental: as §1, §2
# NCI-H838 = details: Homo sapiens, NCI-H838, 144 h; MTAP-deleted, 6-day; read-out: IC50, anti-proliferation NCI-H838
# Experimental: as §1, §2
# [1] = test system: WI-38 (human fetal lung fibroblast cells); details: MTAP WT; read-out: IC50, anti-proliferation WI-38
# Experimental: as §1, §2
structure (smiles),measurement,setting,value
"Cn1cnc2c(=O)n(-c3cccnc3C3CC3)c3cc(Cl)ccc3c21 [SCR‐7952, 7‐chloro‐5‐(2‐cyclopropylpyridin‐3‐yl)‐1‐methyl‐1,5‐dihydro‐4H‐imidazo[4,5‐c]quinolin‐4‐one]",IC50,A549,123 nM
same,fold difference of antiproliferative effect of SCR-7952 and AG-270,"HCT116 MTAP−/− cells; HCT116 MTAP−/− cells, 34.4 vs. 300.4 nM",8.7 fold
same,IC50,"HCT116 MTAP−/− cells; Homo sapiens, HCT-116, 144 h, 6-day treatment, read-out: IC50, anti-proliferation HCT116 MTAP−/−",34.4 nM
same,IC50,HCT116 WT cells,488 nM
same,IC50,MIA PaCa-2,19.7 nM
same,IC50,NCI-H838,4.3 nM
same,IC50,[1],4310 nM
